Test results from patent US20050054582A1, “Para-amino benzoic acids as integrin antagonists” (priority 2001, published 2005).

Experiments:
[1] = tested on: adhesion of Ramos cells to VCAM-1; assay: Adhesion of Ramos cells to immobilized VCAM-1 (domains 1-3); assay type: cell-based; conditions: Homo sapiens, Ramos
Text: In Vitro Assay: Adhesion of Ramos Cells to Immobilized VCAM-1 (Domains 1-3) Preparation of VCAM-1 (Extracellular Domains 1-3)
Complementary DNA (cDNA) encoding 7-domain form of VCAM-1 (GenBank accession #M60335) was obtained using Rapid-Screen™ cDNA library panels (OriGene Technologies, Inc) at Takara Gene Analysis Center (Shiga, Japan). The primers used were 5′-CCAAGGCAGAGTACGCAAAC-3′ (sense) and 5′-TGGCAGGTATTATTAAGGAG-3′ (antisense). PCR amplification of the 3-domain VCAM-1 cDNA was perform using Pfu DNA polymerase (Stratagene) with the following sets of primers: (U-VCAMd1-3) 5′-CCATATGGTACCTGATCAATTTAAAATCGAGACCACCCCAGAA-3′; (L-VCAMdl-3) 5-CCATATAGCAATCCTAGGTCCAGGGGAGATCTCAACAGTAAA-3′. PCR cycle was 94° C. for 45 sec, 55° C. for 45 sec, 72° C. for 2 min, repeating 15 cycles. After the purification of the PCR product, the fragment was digested with KpnI-AvrII. The digested fragment was ligated into pBluescript IISK(−) (Strategene), which was linearized by digesting with KpnI-XhoI. The ligation was followed by transformation to a Dam/Dcm methylase-free E. coli strain SCS110 (Strategene) to create the donor plasmid […]. To direct VCAM-1 molecule into the insect cell secretory pathway, the VCAM-1 coding sequence was fused to signal peptide sequence of honeybee melittin. The resulting melittin-VCAM fusion was placed in correct orientation to the baculovirus polyhedrin promoter. Baculovirus transfer vector containing first 3-domain form VCAM-1 (pH10) was constructed by ligation of 0.9 kb fragment from AvrII/Klenow/BclI digests of pH7 into SalI/Klenow/BamHI digests of pMelBacB (Invitrogen). Recombinant baculovirus was generated by using Bac-N-Blue™ Transfection kit (Invitrogen) according to the manufacture's instruction. The recombinant virus was amplified by infection to High-Five™ insect cells for 5-6 days, and virus titer was determined by plaque assay.
High-Five™ insect cells were pelleted in a 225 ml conical tube by centrifugation at 1000 rpm for 5 min. After discarding the supernatant, the pellet was resuspended in 1.5×10^9 pfu (MOI=5) of high-titer virus solution, followed by incubation for 1.5 hours at room temperature. The cells were pelleted again and washed once in fresh Express Five™ serum free medium. The cells were pelleted again and finally, resuspended in 200 ml of fresh Express Five TM medium, transferred to a 1,000 ml shaker flask, and incubated in a shaker at 27° C., 130 rpm, for 48 hours before the culture supernatant was collected. The purification of 3-domain form of VCAM-1 from the culture supernatant was performed by one-step anion exchange chromatography. Protein concentration was determined by using Coomassie protein assay reagent (Pierce) according to the manufacture's instruction.
Preparation of VCAM-1 Coated Microtiter Plates
Recombinant human VCAM-1 (extracellular domains 1-3) was dissolved at 1.0 μg/ml in PBS. Each well of the microtiter plates (Nalge Nunc International, Fluoronunc Cert, 437958) was coated with 100 μl of substrate or for background control with buffer alone for 15 hours at 4 C. After discarding the substrate solution, the wells were blocked using 150 μl per well of block solution (Kirkegaard Perry Laboratories, 50-61-01) for 90 minutes. The plate was washed with wash buffer containing 24 mM Tris-HCl (pH 7.4), 137 mM NaCl, […] and 2 mM MnCl2 just before addition of the assay.
In Vitro Assay using Ramos Cells
Preparation of Fluorescence Labeled Ramos Cells:
Ramos cells (American Type Culture Collection, Clone CRL-1596) were cultured in RPMI 1640 medium (Nikken Bio Medical Laboratory, CM1101) supplemented with 10% fetal bovine serum (Hyclone, A-1119-L), 100 U/ml penicilin (Gibco BRL, 15140-122) and 100 μg/ml streptomycin (Gibco BRL, 15140-122) in a humidified incubator at 37° C. with 5% CO2. […]

Compound | IC50 [1] | melting point
O=C(Cc1ccc2nc(Nc3ccccc3)oc2c1)NCC(=O)Nc1ccc(C(=O)O)cc1 [Example 74, 4-({N-[(2-anilino-1,3-benzoxazol-6-yl)acetyl]glycyl}amino)benzoic acid] | < 0.5 µM | > 280 °C
COCCCN(CC(=O)N(CC(C)C)c1ccc(C(=O)O)cc1)C(=O)Cc1ccc(NC(=O)Nc2ccccc2C)cc1 [Example 52, 4-[isobutyl(N-(3-methoxypropyl)-V-{[4-({[(2-methylphenyl)amino]carbonyl}amino)phenyl]acetyl}glycyl)amino]benzoic acid] | > 10 µM | 76 to 76.5 °C
O=C(CN(CCc1ccccc1)C(=O)Cc1ccc2nc(Nc3ccccc3)oc2c1)Nc1ccc(C(=O)O)cc1 [Example 75, 4-{[N-[(2-anilino-1,3-benzoxazol-6-yl)acetyl]-N-(2-phenylethyl)glycyl]-amino}benzoic acid] | < 0.5 µM | 160 to 162 °C
COCCCN(CC(=O)Nc1ccc(C(=O)O)cc1)C(=O)Cc1ccc(NC(=O)Nc2ccccc2C)cc1 [Example 38] | < 0.5 µM | 210 to 218 °C

Other lines, results leading:

IC50 [1] | melting point | Compound
> 10 µM | 156 to 158 °C | O=C(CN(CCc1ccc(Oc2ccc(Cl)cc2)cc1)C(=O)Cc1ccc2nc(Nc3ccccc3)oc2c1)Nc1ccc(C(=O)O)cc1 [Example 80]
0.5 to 2 µM | 162 to 165 °C | O=C(CN(CCc1cccc(Cl)c1)C(=O)Cc1ccc2nc(Nc3ccccc3)oc2c1)Nc1ccc(C(=O)O)cc1 [Example 78]
0.5 to 2 µM | 63 to 64 °C | COCCCN(CC(=O)N(C)c1ccc(C(=O)O)cc1)C(=O)Cc1ccc(NC(=O)Nc2ccccc2C)cc1 [Example 53, 4-[(N-(3-methoxypropyl)-N-{[4-({[(2-methylphenyl)amino]carbonyl}amino)phenyl]acetyl}glycyl)(methyl)amino]benzoic acid]
